# Measured values as given in publication PMC12106395, “HmuY proteins of the Porphyromonas genus show diversity in heme-binding properties” (Frontiers in Cellular and Infection Microbiology, 2025).
# Experiments:
# [1] = biological target: T1, HmuY^Bf-2 (Bacteroides fragilis, UniProt Q5LGH3); assay: UV-visible difference absorbance spectroscopy; semi-denaturing PAGE with fluorescence detection; assay type: binding; details: 5 uM protein, 5 uM PPIX, PBS pH 7.4, room temperature
# T1 construct: gene BF9343_0985; 8xHis-MBP tag cut off with Factor Xa; E. coli host
# [2] = biological target: T2, HusA^Pg (Porphyromonas gingivalis, UniProt Q7MSY3); assay: UV-visible difference absorbance spectroscopy; assay type: binding; details: 5 uM protein, 5 uM PPIX, PBS pH 7.4, room temperature; complex seen by spectroscopy only
# T2 construct: gene PG_2227; 8xHis-MBP tag cut off with Factor Xa; E. coli host; strain of the plasmid only in supplement (W83 is the BLAST query strain)
# T2 sequence (Q7MSY3 entry or part of it): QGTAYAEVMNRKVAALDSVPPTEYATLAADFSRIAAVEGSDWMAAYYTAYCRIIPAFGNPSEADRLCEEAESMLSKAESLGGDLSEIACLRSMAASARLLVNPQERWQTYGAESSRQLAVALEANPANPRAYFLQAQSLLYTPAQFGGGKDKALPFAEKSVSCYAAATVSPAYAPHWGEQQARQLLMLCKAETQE
# T1 sequence (Q5LGH3 entry or part of it): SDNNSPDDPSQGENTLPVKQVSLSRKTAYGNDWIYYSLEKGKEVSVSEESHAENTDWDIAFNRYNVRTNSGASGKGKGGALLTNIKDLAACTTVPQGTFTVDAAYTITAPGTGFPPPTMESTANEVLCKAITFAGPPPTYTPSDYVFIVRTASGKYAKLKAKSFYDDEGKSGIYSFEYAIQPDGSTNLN
compound,measurement,setting,value
C=CC1=C(C)c2cc3[nH]c(cc4nc(cc5[nH]c(cc1n2)c(C)c5CCC(=O)O)C(CCC(=O)O)=C4C)c(C)c3C=C [PPIX],UV-visible difference absorbance spectroscopy; semi-denaturing PAGE with fluores,[1],PPIX binding by HmuY^Bf-2 were detected after electrophoretic separation of proteins and porphyrins
same,UV-visible difference absorbance spectroscopy,[2],"HmuY^Bf-2, which, similar to HusA^Pg, binds both heme and PPIX"
